Measured values: US11179348B2, “Combination comprising pterostilbene for the treatment of cancer” (FUNDACIÓN UNIVERSIDAD CATÓLICA DE VALENCIA SAN VICENTE …, priority 2015, dated 2021)
Marks after values point to notes of the source that are not given here.

Experiments:
[1] = system: MCF-7 breast adenocarcinoma; assay: In vivo growth of MCF-7 breast cancer xenografts; design: species or system human; details: MCF-7, day 28
[2] = system: A549 cells; assay: GSH levels and glutathione- and oxidative stress-related enzyme activities in A549 cells growing in vivo; design: species or system human; details: A549, in vivo Pter, day 35
Experimental: To measure enzyme activity, isolated tumor cells were homogenized in 0.1 M phosphate buffer (pH 7.2) at 4° C. GCL and GSS activities were measured as described previously (Obrador, E. et al. Hepatology 35, 74-81 (2002)). GPX (selenium dependent) activity was measured as described by Flohé and Gunzler (Flohe, L. & Gunzler, W. A. Methods Enzymol 105, 114-121 (1984)) using H2O2 as a substrate. GSR activity was determined as described by Akerboom and Sies (Akerboom, T. P. et al, Bull Eur Physiopathol Respir 17 Suppl, 221-227 (1981)). GGT activity was measured as described previously (Obrador, E. et al. Hepatology 35, 74-81 (2002)). GST activity was measured using an assay kit from Sigma. TXNRD activity, defined by the concentration of sodium-lipoate (disulfide) reduced to dehydrolipoate (dithiol) per milligram protein, was measured as previously described (Javvadi, P. et al. Cancer Res 70, 1941-1950 (2010)). SOD activity was measured as described by Flohé and Otting (Flohe, L. & Otting, F. Methods Enzymol 105, 93-104 (1984).) using 2 mM cyanide in the assay medium to distinguish mangano-type enzyme (SOD2) from the cuprozinc type (SOD1). CAT activity was analyzed as described by Aebi (Aebi, H. Methods Enzymol 105, 121-126 (1984)). NOX activity was measured by chemiluminescence following the methodology of Wind et al. (Wind, S. et al. Comparative pharmacology of chemically distinct NADPH oxidase inhibitors. Br J Pharmacol 161, 885-898 (2010)). Protein concentration was determined with the Pierce BCA protein assay (Fisher Scientific, Waltham, Mass.).
GSH, GSSG, NADP^+ and NADPH Determination.
GSH and GSSG were determined, following procedures previously described (Obrador, E. et al. PLoS One 9, e96466 (2014)), by LC/MS using the same equipment described above for pterostilbene determination. Cell processing was performed according to published methodology, where rapid N-ethylmaleimide derivatization was used to prevent GSH auto-oxidation (Asensi, M. et al. Anal Biochem 217, 323-328 (1994)). NADP^+ and NADPH were quantitated using an assay kit from Sigma (St. Louis, Mo.).
Isolation of Tumor Cells from Mouse Xenografts Using Enzymatic Digestion and a double Ficoll gradient.
To maximize the amount of isolated cells, avoiding the use of RFP-transfected cells and subsequent laser microdissection, an alternative methodology was set up. To maximize cell yield and viability the following combination of enzymes was used: collagenase III (200 U/ml; Sigma-Aldrich), DNase I (200 U/ml; Sigma-Aldrich) and trypsin (5 mg/ml; Invitrogen), and a non-enzymatic dissociation buffer (NEDB, Invitrogen). Briefly, mice were killed, and tumors were removed (avoiding skin, muscle and fat) into cold culture media and processed immediately. The tumors were minced into 1-3 mm fragments, which were then incubated with the dissociation solution (see above) for 30 min at 37° C. The tumor fragments were mixed up and down every 10 min using a […] micropipette with a tip cut to a diameter adapted to tissue fragment size. After each incubation period, the fragments were filtered through a […] nylon mesh cell strainer (BD Biosciences, San Diego, Calif., USA). The released cells were centrifuged at 1200 r.p.m. for 2 min and stored in cold CO2-independent medium with 30% FCS at […]. Fresh dissociation solution was added to the remaining tissue fragments for 30 min. Dissociation was stopped when no additional cells were released. The fragments were pushed through a sieve and all cells from all incubation periods were pooled and counted.
The dissociated cells were layered onto a double Ficoll gradient (Histopaque; Sigma-Aldrich; densities 1.077 and 1.119) and spun at 700 g for 30 min at room temperature. Cells removed from both interfaces were pooled and washed two times in CO2-independent medium and stored at 4° C. Debris and red blood cell elimination was improved with the dual-density gradient. […]

[3] = system: B16-F1 cells; assay: Effect of Pter on B16-F1 cell growth or viability in vitro; assay type: cell-based, murine; details: 15 μM Pter×60 min every 24 h
Experimental: FIG. 14. In vivo effect of Pter on tumor growth (A) and on corticosterone (B) and ACTH (C) levels in plasma of murine B16-F1 melanoma-bearing mice. Pter (30 mg/kg) was administered i.v. every 24 h for a period of 15 days, starting 3 days after tumor inoculation.
Human A2058, MeWo and MelJuso melanoma cells, and mouse AtT-20 pituitary corticotroph tumor cells were from the American Type Culture Collection (ATCC). Human HEMa-LP epidermal melanocytes were from Life Technologies (Grand Island, N.Y.). Human MDA-MB-231 (triple negative: ER−, PR−, HER2−) and MCF-7 (ER+, PR+, HER2−) breast adenocarcinoma, A549 lung adenocarcinoma (NSCLC), HepG2 hepatocellular carcinoma, LNCaP (AR+) and PC-3 (AR−) prostate adenocarcinoma, SK-OV-3 epithelial ovarian carcinoma, and HT-29 and Caco-2 colorectal carcinoma cells were from the American Type Culture Collection. Cells were grown in Dulbecco's modified Eagle's medium (DMEM) (Invitrogen, San Diego, Calif.), pH 7.4, supplemented with 10% heat-inactivated FCS (Biochrom KG, Berlin, Germany), 100 units/ml penicillin and 100 μg/ml streptomycin. […] Cell numbers were determined using a Coulter Counter (Coulter Electronic Inc., Miami, Fla.). […] Cellular viability was assessed as previously reported (Mena, S. et al. Clin Cancer Res 13, 2658-2666 (2007)), by measuring trypan blue exclusion and leakage of lactate dehydrogenase activity.

[4] = system: glucocorticoid receptors (GR); assay: GR content of human cancer cells by [3H]-labeled ligand whole-cell binding assay
[5] = system: A549 lung adenocarcinoma; assay: In vivo growth of A549 lung cancer xenografts; design: species or system human; details: A549, day 35

COc1cc(/C=C/c2ccc(O)cc2)cc(OC)c1 [Pter, trans-3,5-dimethoxy-4′-hydroxystilbene]
Tumor vol. [1]: 689 ± 153 mm^3
CAT [2]: 0.3 ± 0.01 mU/10^6 cells
GCL [2]: 39 ± 16 mU/10^6 cells
GSH [2]: 4.7 ± 1.5 nmol/10^6 cells
GSS [2]: 3.9 ± 1.0 mU/10^6 cells
GSSG [2]: 0.2 ± 0.07 nmol/10^6 cells
SOD1 [2]: 0.5 ± 0.1 U/10^6 cells
SOD2 [2]: 0.04 ± 0.01 U/10^6 cells
cell growth or viability in vitro [3]: did not affect
GR number ([4]; A549, day 35): 41 ± 10 10^3 GR/cell
GR number (binding sites/cell) ([4]; A2058-RFP tumors, day 35): 71 ± 5 10^3 GR/cell
GR number (binding sites/cell) ([4]; AsPC-1-RFP tumors, day 28): 63 ± 10 10^3 GR/cell
GR number (binding sites/cell) ([4]; BxPC-3-RFP tumors, day 35): 115 ± 27 10^3 GR/cell
GR number ([4]; Caco-2, day 28): 7 ± 2 10^3 GR/cell
GR number ([4]; HT-29, day 21): 14 ± 3 10^3 GR/cell
GR number ([4]; HepG2, day 35): 45 ± 11 10^3 GR/cell
GR number ([4]; LNCaP, day 49): 3 ± 1 10^3 GR/cell
GR number ([4]; MCF-7, day 28): <1 10^3 GR/cell
GR number ([4]; MDA-MB-231, day 35): 18 ± 3 10^3 GR/cell
GR number (binding sites/cell) ([4]; MeWo-RFP tumors, day 35): 45 ± 6 10^3 GR/cell
GR number (binding sites/cell) ([4]; MelJuso-RFP tumors, day 35): 47 ± 4 10^3 GR/cell
GR number ([4]; PC-3, day 21): 21 ± 6 10^3 GR/cell
GR number ([4]; SK-OV-3, day 49): 25 ± 7 10^3 GR/cell
Tumor vol. [5]: 223 ± 88* mm^3
